Source: publication PMC8395335, “Serotonergic–Muscarinic Interaction within the Prefrontal Cortex as a Novel Target to Reverse Schizophrenia-Related Cognitive Symptoms” (International Journal of Molecular Sciences, 2021)

Tests used:
MK-801-treated mice [1] = assay: Novel object recognition (NOR) test, MK-801-induced deficits; type: in vivo
Method: (§1) Drugs were administered on two different schedules: (1) acute administration of compounds 45 min (WAY100635—5-HT1A antagonist) or 30 min (VU0357017, VU152100, VU0238429, and F15599) before MK-801 (also administered once 30 min before the test in Y-maze or T1 in NOR test); and (2) prolonged administration (once per day for 7 consecutive days) of the compounds and MK-801 with the last administration 24 h before the test (NOR test) or at the day of the test (Y-maze). […] Schedules of administration are presented graphically in Figure 2. The subeffective doses of the compounds for acute administration in the NOR test were chosen based on our previous research (see: [22, 23]) while dose-dependent studies of the activity of the compounds in reversing disruptions in the Y-maze or after prolonged administration along with MK-801 were performed within this study. Different vehicles were used throughout the study: (1) 0.9% NaCl and (2) 10% Tween 80. Vehicles were administered to all animals (e.g., control mice and MK-801-treated mice) on the same schedule as drugs were administered to the appropriate drug-treated groups of mice. Neither solvent exerted effects on animal behavior.
(§2) Male Albino Swiss mice (Charles River, Sulzfeld, Germany) weighing 20–25 g at the beginning of the experiments were used in the studies. The animals were housed in a room with a 12:12 h light-dark cycle at a temperature of 22 ± 1 °C with food and water available ad libitum. The experimental groups consisted of 8–10 animals. All drugs were administered intraperitoneally (i.p.) at a volume of 10 mL/kg. The behavioral experiments were performed by an observer who was blinded to the treatment. The procedures were conducted in accordance with the European Communities Council Directive of 22 September 2010 (2010/63/EU) and Polish legislation acts concerning animal experimentation and were approved by the II Local Ethics Committee by the Maj Institute of Pharmacology, Polish Academy of Sciences in Krakow (15/2020, 240/2020).
(§3) In acute experiments, the tested compounds (alone or in combination) were administered 30 min before MK-801 (0.3 mg/kg), which was administered 30 min before the test or training trial (T1) in the NOR test. In chronic experiments, the tested compounds (alone or in combination) and MK-801 were administered for seven days. Behavioral tests were performed on the eighth day.
The NOR test was performed as described previously. Briefly, the habituation, training and test trial were carried out in a dark room in a black, plastic rectangular arena illuminated with a 355 lux bulb. During the habituation trial, the animals were allowed to explore the arena in the absence of objects (10 min/day for 2 days). The next day, the training (T1) and test (T2) trials were performed. Throughout T1, mice were allowed to freely explore two identical objects (5 min), one of which was subsequently replaced by a novel object in T2 (1 h later, 5 min of exploration). Time spent exploring (i.e., sniffing or touching) the familiar (Tfamiliar) or novel object (Tnovel) was measured by a trained observer, and then the recognition index was calculated for each mouse [(Tnovel − Tfamiliar)/(Tfamiliar + Tnovel)] × 100.

[2] = Pharmacokinetic analysis of drug-drug interactions (plasma, FC concentration, FC penetration); type: in vivo, mice; conditions: Albino Swiss, mouse, in vivo, 30 min
Method: The experiment was performed using the methods described by Bridges et al. and in our previous studies.
The pharmacokinetic analysis was performed in the blood and prefrontal cortex. […] Plasma and FC samples were stored at −80 °C until analysis.
The investigated compounds were administered alone at the top dose (F15599—0.1 mg/kg, VU0357017—5 mg/kg, VU0152100—1 mg/kg, and VU0238429—5 mg/kg) and in combinations of muscarinic ligands at subeffective doses with F15599 at subeffective dose (F15599 + VU0357017 0.05 and 0.15 mg/kg, F15599 + VU0152100 0.05 and 0.05 mg/kg, F15599 + VU0238429 0.05 and 1 mg/kg). The FC and blood were collected on the eighth day, 30 min after administration. All mice were parallelly treated with MK-801 (0.3 mg/kg) for seven consecutive days.
On the day of analysis, frozen whole mouse brain tissues were weighed and homogenized in 1:2 (w/v) volumes of ice-cold acetonitrile containing 0.1% FA and the internal standard mix. Samples were homogenized using a Metal Bead Lysing Matrix, vortexed for 1 min, shaken for 20 min at 4 °C on Thermomixer C, and centrifuged at 14,000× g rpm for 20 min at 4 °C. Finally, 50 µL of supernatant were diluted with 0.1% FA in water (1:1, v/v) and analyzed using HPLC/MS/MS.
The sample extraction of plasma (20 μL) was performed after spiking with the internal standard mix using the protein precipitation method and three volumes of ice-cold acetonitrile containing 0.1% formic acid. The extract was vortexed, incubated on ice for 20 min and centrifuged at 14,000× g rpm for 20 min at 4 °C. The supernatant was diluted with 0.1% FA in water (1:1, v/v) and analyzed by means of HPLC/MS/MS using a QTRAP 4500 (AB Sciex) mass spectrometer in positive ion mode in Multiple Reaction Monitoring (MRM screening) coupled with UHPLC (NEXERA XR, Shimadzu). Chromatographic separation was achieved on a Synergi 4 µm Fusion-RP 80 A 50 × 2 mm (Phenomenex) column at a flow rate of 0.2 mL/min. The gradient program was as follows: 20% B (0.3 min), 20–100% B (1.7 min), 100% B (3 min), 100–20% B (0.1 min), 20% B (2 min), solvent A (95:5:0.1% formic acid in water:methanol) and solvent B (methanol containing 0.1% formic acid). The column temperature was set to 40 °C. Analyst software was used to control the instrument and collect data. The ion transfer tube temperature was 300 °C. The spray voltage, collision energy, declastering potential, and gas parameters were optimized to achieve the maximal response using the test compounds. Selected reaction monitoring was carried out using the transition parameters. Calibration curves were constructed, and a linear response was obtained in the range of 0.25–500 ng/mL (VU357017, VU0152100, and F15599) and 1.25–2500 ng/mL (VU0238429) by spiking known amounts of each compound in blank brain homogenates and plasma. For VU0357017 and F15599 IS VU0152100 was used as internal standard. Sample concentration of internal standard was 100 ng/mL for IS VU0238429 and 50 ng/mL for IS VU0152100.
Brain penetration was calculated as FC/plasma ratio × 100%.

MK-801-treated mice [3] = assay: Y-maze test (spontaneous alternations), MK-801-induced deficits; type: in vivo
Method: as §1, §2, §3
The Y-maze was performed using the methods described by Miedel et al. and Kraeuter et al. with minor modifications. A black, wooden Y-shaped apparatus with equal length arms (labeled A, B, or C) spaced 120 apart was used in the behavioral experiment. Visual clues were placed inside the maze and mounted to the back wall of each arm. The experiment was performed in a well-lit room. The mice were placed in the same starting arm and were allowed to freely explore the maze for 8 min. After each trial, the maze was wiped clean. The sequence and the number of arm entries were recorded to calculate the percentage of spontaneous alternations using the following formula: [(Number of alternations)/(Total arm entries − 2)] × 100. An arm entry was scored if the animal entered the arm with all paws. Consecutive entries into three distinct arms were scored as an alternation (e.g., ACB, but not ACA) in which sequences could overlap (e.g., ACBACABAC represents […] alternations).

SMILES: COc1ccccc1N1CCN(CCN(C(=O)C2CCCCC2)c2ccccn2)CC1 [WAY100635]
- Effect of WAY100635 on the pro-cognitive effect of muscarinic ligand in the NOR test (MK-801-treated mice [1]; acute, WAY100635 0.1 mg/kg 15 min before VU0152100 (1 mg/kg)): reversed the pro-cognitive effect
- Effect of WAY100635 on the pro-cognitive effect of muscarinic ligand in the NOR test (MK-801-treated mice [1]; acute, WAY100635 0.1 mg/kg 15 min before VU0238429 (5 mg/kg)): reversed the pro-cognitive effect
- Effect of WAY100635 on the pro-cognitive effect of muscarinic ligand in the NOR test (MK-801-treated mice [1]; acute, WAY100635 0.1 mg/kg 15 min before VU0357017 (5 mg/kg)): reversed the pro-cognitive effect

SMILES: COc1ccc(CNC(=O)c2sc3nc(C)cc(C)c3c2N)cc1 [VU0152100]
- Reversal of MK-801-induced deficits in the NOR test (recognition index) (MK-801-treated mice [1]; 7 days with MK-801, 0.1 mg/kg i.p.): activity of VU0152100 was observed
- Reversal of MK-801-induced deficits in the NOR test (recognition index) (MK-801-treated mice [1]; 7 days with MK-801, 1 mg/kg): activity of VU0152100 was observed
- Reversal of MK-801-induced deficits in the NOR test (recognition index) (MK-801-treated mice [1]; 7 days with MK-801, dose of 0.05): ineffective
- Reversal of MK-801-induced disruptions in NOR test by combined administration (MK-801-treated mice [1]; 7 days, F15599 0.05 mg/kg with VU0152100 0.05 mg/kg (subeffective doses)): reversed
- Effect of top dose on MK-801-induced deficits in the NOR test (MK-801-treated mice [1]; acute, 1 mg/kg i.p., alone): pro-cognitive effect
- Effect of combined administration on MK-801-induced memory deficits in the NOR test (MK-801-treated mice [1]; acute, subeffective doses, F15599 with VU0152100): no effect
- Increase of FC penetration after prolonged administration compared to acute [2]: ca. 50%
- Increase of FC penetration when administered concomitantly with F15599 [2]: more than 50%
- Reversal of MK-801-induced disruptions in Y-maze by combined administration (MK-801-treated mice [3]; 7 days, F15599 0.025 mg/kg with VU0152100 0.05 mg/kg (subeffective doses)): did not reverse
- Reversal of MK-801-induced reduction in spontaneous alternations in the Y-maze (MK-801-treated mice [3]; acute, 0.1-5 mg/kg i.p.): No efficacy
- Effect of combined administration on spontaneous alternations in the Y-maze test (MK-801-treated mice [3]; acute, F15599 0.1 mg/kg with VU0152100 1 mg/kg, MK-801-treated): no effect

SMILES: C[C@]12N[C@H](Cc3ccccc31)c1ccccc12 [MK-801]
- Disruption in the recognition index (NOR) (MK-801-treated mice [1]; acute MK-801 (0.3 mg/kg) 30 min before T1): induced typical disruption
- Disruption in the recognition index (NOR) (MK-801-treated mice [1]; seven days of MK-801 administration): induced a typical disruption
- Disruption of spontaneous alternations in the Y-maze (MK-801-treated mice [3]; acute MK-801 (0.3 mg/kg) 30 min before test): induced typical disruption
- Disruptive effect on animals' behavior in Y-maze (MK-801-treated mice [3]; prolonged MK-801, test performed 24 h after the last administration): lack of MK-801 disruptive effect
